Measurements published in ChEMBL document CHEMBL1201862, “PubChem BioAssay data set” (2004).
Activity calls are given as the source filed them.

Assays:
[1] = target: T1, DNA dC->dU-editing enzyme APOBEC-3A (Homo sapiens, UniProt P31941); assay: APOBEC3A DNA deaminase inhibitors, dose response, biochemical (AID 504722); format: functional
[2] = target: Large T antigen (Simian virus 40, UniProt P03070); format: functional, Betapolyomavirus macacae;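 further: Confirmatory-stage PubChem screen for compounds that inhibit SV40 T antigen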
[3] = target: T2, Streptokinase A (Streptococcus pyogenes serotype M1, UniProt P10520); assay: S. pyogenes streptokinase expression inhibitors, potency, dose response, plasminogen activation absorbance, OD405 (AID 1914); format: functional, Streptococcus pyogenes M1 GAS;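 further: secreted streptokinase activity via plasminogen activation per viability signal from cell pellet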
T2 sequence (P10520 whole entry): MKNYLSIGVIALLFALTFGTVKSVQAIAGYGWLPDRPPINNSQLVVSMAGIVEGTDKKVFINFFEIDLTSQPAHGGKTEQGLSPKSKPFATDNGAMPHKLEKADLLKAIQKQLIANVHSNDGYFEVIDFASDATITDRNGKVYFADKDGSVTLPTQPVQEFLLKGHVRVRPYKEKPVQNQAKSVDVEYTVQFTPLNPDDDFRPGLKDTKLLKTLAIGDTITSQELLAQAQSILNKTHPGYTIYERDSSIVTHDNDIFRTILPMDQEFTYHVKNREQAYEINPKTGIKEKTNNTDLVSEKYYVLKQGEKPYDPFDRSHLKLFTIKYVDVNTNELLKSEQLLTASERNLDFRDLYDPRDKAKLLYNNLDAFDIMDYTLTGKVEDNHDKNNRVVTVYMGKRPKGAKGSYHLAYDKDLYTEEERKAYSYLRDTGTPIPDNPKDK

[4] = target: T3, Mannose-6-phosphate isomerase (Homo sapiens, UniProt P34949); assay: PMI enzyme inhibitors, confirmation, biochemical, fluorescence intensity (AID 1535)
T3 sequence (P34949 whole entry): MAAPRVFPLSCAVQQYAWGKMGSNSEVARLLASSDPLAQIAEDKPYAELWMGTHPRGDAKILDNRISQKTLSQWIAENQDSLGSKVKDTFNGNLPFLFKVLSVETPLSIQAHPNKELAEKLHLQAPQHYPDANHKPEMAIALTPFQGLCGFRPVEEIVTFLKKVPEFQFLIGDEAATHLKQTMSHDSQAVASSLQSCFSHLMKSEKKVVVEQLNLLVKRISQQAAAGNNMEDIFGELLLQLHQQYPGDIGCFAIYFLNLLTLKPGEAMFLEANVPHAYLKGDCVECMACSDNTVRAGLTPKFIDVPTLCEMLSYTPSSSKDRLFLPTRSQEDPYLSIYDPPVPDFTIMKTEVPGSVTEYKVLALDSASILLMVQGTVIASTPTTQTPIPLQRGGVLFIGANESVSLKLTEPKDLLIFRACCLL

[5] = tested on: Streptococcus sp. 'group A'; assay: growth inhibition of control SK(-) GAS strain, dose response, counter-screen for streptokinase expression inhibitor project, luminescence, kanamycin, BacTiterGlo, confirmation (AID 1900); format: functional, organism-based
[6] = target: Insulin-degrading enzyme (Homo sapiens, UniProt P14735); assay: Dose Response: Fluorescence polarization-based cell-based high throughput dose response assay for inhibitors of insulin-degrading enzyme (IDE). [Related pubchem assays: 434962 (Primary screen (IDE inhibitors in singlicate)), 449730 (Counterscreen (Cytotoxicity in triplicate)), 435028 (Confirmation (IDE inhibitors in triplicate)), 434984 (Summary …; format: functional
[7] = target: T4, DNA dC->dU-editing enzyme APOBEC-3G (Homo sapiens, UniProt Q9HC16); assay: Dose Response confirmation of small molecule APOBEC3G DNA Deaminase Inhibitors via a fluorescence-based single-stranded DNA deaminase assay. [Related pubchem assays (depositor defined):AID493012, AID493028]; format: functional
[8] = target: Eukaryotic translation initiation factor 4E (Mus musculus, UniProt P63073); assay: eIF4E–eIF4G protein interaction inhibitors, dose response, biochemical, TR-FRET (AID 855); format: functional;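 further: potency for disrupting eIF4E binding to eIF4GI seen as loss of FRET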
[9] = tested on: Streptococcus; assay: Group A Streptococcus viability loss, dose response, counter-screen for streptokinase expression inhibitor project, luminescence, BacTiterGlo (AID 1915); format: functional, organism-based;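 further: potency for reduction of bacterial viability or growth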
[10] = target: T5, Phosphomannomutase 2 (Homo sapiens, UniProt O15305); assay: Counter screen SAR assay for PMM2 inhibitors via a fluorescence intensity assay. [Related pubchem assays (depositor defined):AID1545, AID1574]
T5 sequence (O15305 whole entry): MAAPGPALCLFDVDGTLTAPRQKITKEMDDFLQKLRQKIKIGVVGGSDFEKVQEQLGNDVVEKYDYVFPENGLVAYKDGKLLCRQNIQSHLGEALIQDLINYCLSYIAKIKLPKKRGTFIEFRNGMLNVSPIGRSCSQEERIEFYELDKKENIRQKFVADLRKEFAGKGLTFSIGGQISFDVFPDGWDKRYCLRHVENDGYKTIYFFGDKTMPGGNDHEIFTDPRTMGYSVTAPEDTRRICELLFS

[11] = Counterscreen for IDE inhibitors: Luminescence-based cell-based high throughput dose response assay to identify compounds that are cytotoxic to HEK cells. [Related pubchem assays: 434962 (Primary screen (IDE inhibitors in singlicate)), 449730 (Counterscreen (Cytotoxicity in triplicate)), 435028 (Confirmation (IDE inhibitors in triplicate)) …; format: functional; conditions: HEK293
[12] = target: T6, Phosphoethanolamine/phosphocholine phosphatase (Homo sapiens, UniProt Q8TCT1); assay: SAR assay for compounds that inhibit PHOSPHO1. [Related pubchem assays (depositor defined):AID1545, AID1565, AID1574]
T6 sequence (Q8TCT1 whole entry): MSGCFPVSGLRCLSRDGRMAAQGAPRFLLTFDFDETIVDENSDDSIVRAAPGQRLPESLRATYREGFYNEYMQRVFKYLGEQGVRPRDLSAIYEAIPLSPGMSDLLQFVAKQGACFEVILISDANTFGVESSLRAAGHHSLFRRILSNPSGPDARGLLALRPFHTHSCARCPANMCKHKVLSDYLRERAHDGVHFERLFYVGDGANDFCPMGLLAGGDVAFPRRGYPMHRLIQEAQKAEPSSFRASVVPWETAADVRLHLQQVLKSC

[13] = target: T7, G-protein coupled receptor 55 (Homo sapiens, UniProt Q9Y2T6); assay: GPR55 antagonists blocking LPI-driven arrestin recruitment, primary screen, imaging, U2OS, beta-arrestin-GFP, LPI agonist (AID 2013); format: functional;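 further: antagonist potency measured as reduced agonist-driven arrestin aggregation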
[14] = target: DNA damage-inducible transcript 3 protein (Mus musculus, UniProt P35639); format: functional, Cricetulus griseus
[15] = target: T1, DNA dC->dU-editing enzyme APOBEC-3A; assay: Dose Response confirmation of small molecule APOBEC3A DNA Deaminase Inhibitors via a fluorescence-based single-stranded DNA deaminase assay. [Related pubchem assays (depositor defined):AID493011, AID493024]; format: functional
[16] = target: T4, DNA dC->dU-editing enzyme APOBEC-3G; format: functional
[17] = target: CAAX prenyl protease 2 (Saccharomyces cerevisiae S288c, UniProt Q03530); format: biochemical
[18] = target: Bcl-2-like protein 10 (Homo sapiens, UniProt Q9HD36); assay: displacers of TR3 peptide from Bcl-B, primary screen, selectivity assay for Bfl-1 inhibitor project, biochemical, fluorescence polarization, FITC-TR3 peptide (AID 748);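 further: fluorescence polarization from a fluorescein-labelled TR3 peptide binding purified Bcl-B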
[19] = target: T8, Carboxy-terminal domain RNA polymerase II polypeptide A small phosphatase 1 (Homo sapiens, UniProt Q9GZU7); assay: inhibitors of CTDSP1, concentration-response testing, biochemical assay, absorbance-based, actives from ultra-high-throughput screening (AID 540297); format: functional
T8 sequence (Q9GZU7 whole entry): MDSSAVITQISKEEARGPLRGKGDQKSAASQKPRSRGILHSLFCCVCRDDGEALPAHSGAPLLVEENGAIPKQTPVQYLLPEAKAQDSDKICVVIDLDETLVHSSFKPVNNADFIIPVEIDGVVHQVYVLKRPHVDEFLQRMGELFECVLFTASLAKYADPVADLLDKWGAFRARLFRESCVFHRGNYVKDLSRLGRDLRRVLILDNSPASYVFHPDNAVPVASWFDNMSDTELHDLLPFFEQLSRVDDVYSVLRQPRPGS

[20] = target: Cytochrome P450 2C19 (Homo sapiens, UniProt P33261); assay: Cytochrome panel assay with activity outcomes. Panel member name: p450-cyp2c19 Compounds with AC50 equal or less than 10 uM are considered active; format: functional; conditions: read-out: AC50
[21] = target: T9, CAAX prenyl protease 2 (Homo sapiens, UniProt Q9Y256); assay: human Rce1 protease inhibitors, dose response, biochemical, yeast membranes, quenched-peptide fluorescence, cherry-pick (AID 588849)
T9 sequence (Q9Y256 whole entry): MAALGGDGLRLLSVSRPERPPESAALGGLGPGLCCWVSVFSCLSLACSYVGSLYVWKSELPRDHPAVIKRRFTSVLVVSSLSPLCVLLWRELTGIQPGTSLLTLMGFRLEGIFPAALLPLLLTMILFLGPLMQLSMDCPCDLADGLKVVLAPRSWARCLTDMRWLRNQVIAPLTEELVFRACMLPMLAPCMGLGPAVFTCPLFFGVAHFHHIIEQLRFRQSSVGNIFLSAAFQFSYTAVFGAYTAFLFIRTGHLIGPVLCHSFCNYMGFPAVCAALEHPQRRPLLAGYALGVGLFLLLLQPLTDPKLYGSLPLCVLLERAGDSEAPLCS

[22] = target: Cytochrome P450 2C9 (Homo sapiens, UniProt P11712)
[23] = target: Trypsin (Sus scrofa, UniProt P00761); assay: porcine trypsin inhibitors, dose response, selectivity assay for Rce1 protease inhibitor project, biochemical, quenched peptide fluorescence, cherry-pick (AID 488789)
[24] = target: Cytochrome P450 3A4 (Homo sapiens, UniProt P08684);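 further: CYP3A4 tested as one member of a cytochrome P450 panel screen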
[25] = target: G-protein coupled receptor 35 (Homo sapiens, UniProt Q9HC97); assay: SAR analysis of Antagonists of the GPR35 Receptor using an Image-Based Assay - Set 5. [Related pubchem assays (depositor defined):AID2058, AID2079]; format: functional
[26] = target: T7, G-protein coupled receptor 55; assay: SAR Analysis of Selective Antagonists of GPR55 using an Image-Based Assay - Set 3. [Related pubchem assays (depositor defined):AID2058, AID2079]; format: functional
[27] = cells; format: functional, cell-based
[28] = tested on: HeLa; assay: HeLa cell cytotoxicity, dose response, cytotoxicity control for MITF activator project, CellTiter-Glo luminescence, cherry-pick samples (AID 540259); format: functional, cell-based; conditions: Homo sapiens
[29] = target: T10, Nuclear receptor subfamily 0 group B member 1 (Homo sapiens, UniProt P51843); format: functional, cell-based;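 further: HEK293T cells transfected with SF-1 and DAX-1 plus StAR promoter luciferase reporter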
T10 sequence (P51843 whole entry): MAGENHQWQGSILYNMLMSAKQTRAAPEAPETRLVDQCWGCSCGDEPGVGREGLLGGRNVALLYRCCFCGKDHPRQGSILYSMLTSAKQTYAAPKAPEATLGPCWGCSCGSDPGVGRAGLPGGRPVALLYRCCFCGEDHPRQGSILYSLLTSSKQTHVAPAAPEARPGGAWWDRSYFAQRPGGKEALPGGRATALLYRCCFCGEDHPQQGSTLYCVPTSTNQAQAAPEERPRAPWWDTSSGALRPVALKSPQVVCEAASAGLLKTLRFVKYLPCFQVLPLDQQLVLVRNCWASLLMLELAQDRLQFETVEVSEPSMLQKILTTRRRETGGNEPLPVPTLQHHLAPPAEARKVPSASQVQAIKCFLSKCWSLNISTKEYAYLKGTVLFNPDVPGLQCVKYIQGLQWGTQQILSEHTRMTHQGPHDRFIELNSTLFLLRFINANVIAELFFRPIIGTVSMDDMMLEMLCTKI

T4 sequence (Q9HC16 whole entry): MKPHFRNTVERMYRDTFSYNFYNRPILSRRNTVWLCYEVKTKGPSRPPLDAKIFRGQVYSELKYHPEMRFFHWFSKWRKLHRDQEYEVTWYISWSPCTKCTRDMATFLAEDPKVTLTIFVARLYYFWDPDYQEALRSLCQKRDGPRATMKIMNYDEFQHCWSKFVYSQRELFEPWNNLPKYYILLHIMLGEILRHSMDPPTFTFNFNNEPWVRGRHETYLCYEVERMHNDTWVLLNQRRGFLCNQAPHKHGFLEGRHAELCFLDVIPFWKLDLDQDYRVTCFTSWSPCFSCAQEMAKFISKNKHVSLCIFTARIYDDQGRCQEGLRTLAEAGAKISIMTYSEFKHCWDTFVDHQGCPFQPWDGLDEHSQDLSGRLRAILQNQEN
T1 sequence (P31941 whole entry): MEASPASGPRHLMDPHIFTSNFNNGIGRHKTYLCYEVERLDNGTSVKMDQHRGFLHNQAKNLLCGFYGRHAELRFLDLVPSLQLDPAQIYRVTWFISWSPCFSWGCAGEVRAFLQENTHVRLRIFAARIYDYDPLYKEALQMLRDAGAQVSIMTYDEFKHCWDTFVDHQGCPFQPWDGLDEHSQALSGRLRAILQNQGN
T7 sequence (Q9Y2T6 whole entry): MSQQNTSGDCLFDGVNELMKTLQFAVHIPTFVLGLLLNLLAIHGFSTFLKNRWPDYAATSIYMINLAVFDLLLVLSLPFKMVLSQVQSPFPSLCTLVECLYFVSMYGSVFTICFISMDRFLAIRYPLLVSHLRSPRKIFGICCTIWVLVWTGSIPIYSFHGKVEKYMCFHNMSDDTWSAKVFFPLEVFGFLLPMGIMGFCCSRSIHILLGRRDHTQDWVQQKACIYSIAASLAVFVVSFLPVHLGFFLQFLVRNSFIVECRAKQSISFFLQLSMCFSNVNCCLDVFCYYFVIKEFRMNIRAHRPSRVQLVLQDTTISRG
Chain of CAAX prenyl protease 2 (Saccharomyces cerevisiae S288c, UniProt Q03530) (Q03530 whole entry): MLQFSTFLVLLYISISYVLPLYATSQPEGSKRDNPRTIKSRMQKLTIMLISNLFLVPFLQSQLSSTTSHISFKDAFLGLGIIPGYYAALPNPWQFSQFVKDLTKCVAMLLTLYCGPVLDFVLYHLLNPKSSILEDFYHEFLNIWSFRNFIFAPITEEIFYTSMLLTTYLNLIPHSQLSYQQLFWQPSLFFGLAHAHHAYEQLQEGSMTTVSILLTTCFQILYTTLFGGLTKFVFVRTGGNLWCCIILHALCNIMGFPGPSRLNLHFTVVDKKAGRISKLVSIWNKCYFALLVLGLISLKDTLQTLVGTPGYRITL
Chain of Bcl-2-like protein 10 (Q9HD36 whole entry, the tested form may be a part): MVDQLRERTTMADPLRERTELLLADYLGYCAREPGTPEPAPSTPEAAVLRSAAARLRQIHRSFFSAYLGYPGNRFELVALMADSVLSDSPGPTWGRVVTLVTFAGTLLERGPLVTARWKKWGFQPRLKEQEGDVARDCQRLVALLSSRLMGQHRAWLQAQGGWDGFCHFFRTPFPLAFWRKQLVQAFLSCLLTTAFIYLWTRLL
Chain of Cytochrome P450 3A4 (P08684 whole entry): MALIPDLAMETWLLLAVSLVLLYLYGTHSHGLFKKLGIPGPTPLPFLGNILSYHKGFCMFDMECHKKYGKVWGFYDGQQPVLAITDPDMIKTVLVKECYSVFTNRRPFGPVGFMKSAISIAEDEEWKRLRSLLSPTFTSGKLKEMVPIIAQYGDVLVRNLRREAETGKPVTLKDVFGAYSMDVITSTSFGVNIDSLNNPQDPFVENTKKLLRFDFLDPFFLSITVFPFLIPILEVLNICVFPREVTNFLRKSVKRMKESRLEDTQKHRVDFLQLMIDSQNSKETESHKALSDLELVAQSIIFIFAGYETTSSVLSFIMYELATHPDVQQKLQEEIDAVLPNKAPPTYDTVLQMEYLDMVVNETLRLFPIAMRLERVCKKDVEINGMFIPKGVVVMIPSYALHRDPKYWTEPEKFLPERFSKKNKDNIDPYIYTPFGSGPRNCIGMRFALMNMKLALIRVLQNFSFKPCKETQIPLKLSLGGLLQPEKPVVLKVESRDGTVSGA
Chain of G-protein coupled receptor 35 (Q9HC97 whole entry): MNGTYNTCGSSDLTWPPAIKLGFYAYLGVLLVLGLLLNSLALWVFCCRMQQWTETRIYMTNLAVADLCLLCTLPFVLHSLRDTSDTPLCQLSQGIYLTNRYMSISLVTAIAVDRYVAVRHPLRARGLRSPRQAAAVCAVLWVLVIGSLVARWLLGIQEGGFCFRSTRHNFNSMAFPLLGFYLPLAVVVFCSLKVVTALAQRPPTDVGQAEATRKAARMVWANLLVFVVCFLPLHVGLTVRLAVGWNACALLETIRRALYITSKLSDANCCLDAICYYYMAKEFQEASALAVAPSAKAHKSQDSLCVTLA
Chain of Cytochrome P450 2C19 (P33261 whole entry): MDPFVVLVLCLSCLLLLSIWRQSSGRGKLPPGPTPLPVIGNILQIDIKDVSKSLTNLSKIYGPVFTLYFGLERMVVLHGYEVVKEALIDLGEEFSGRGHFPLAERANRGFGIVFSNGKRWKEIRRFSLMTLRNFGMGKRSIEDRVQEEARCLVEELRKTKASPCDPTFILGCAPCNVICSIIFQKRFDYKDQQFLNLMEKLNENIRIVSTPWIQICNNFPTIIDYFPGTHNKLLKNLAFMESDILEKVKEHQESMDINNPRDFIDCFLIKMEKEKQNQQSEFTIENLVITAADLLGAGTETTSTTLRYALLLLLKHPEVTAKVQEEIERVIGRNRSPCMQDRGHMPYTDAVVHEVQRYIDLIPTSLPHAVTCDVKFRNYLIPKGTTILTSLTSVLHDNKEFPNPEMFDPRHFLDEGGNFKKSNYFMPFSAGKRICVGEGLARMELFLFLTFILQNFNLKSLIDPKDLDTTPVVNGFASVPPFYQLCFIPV
Chain of Eukaryotic translation initiation factor 4E (P63073 whole entry): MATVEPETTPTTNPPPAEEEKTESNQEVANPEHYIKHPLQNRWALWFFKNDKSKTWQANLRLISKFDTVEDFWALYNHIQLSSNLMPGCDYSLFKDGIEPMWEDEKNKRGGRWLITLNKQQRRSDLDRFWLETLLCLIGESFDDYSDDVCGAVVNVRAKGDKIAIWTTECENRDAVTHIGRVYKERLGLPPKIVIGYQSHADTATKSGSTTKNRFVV
Chain of Large T antigen (P03070 whole entry): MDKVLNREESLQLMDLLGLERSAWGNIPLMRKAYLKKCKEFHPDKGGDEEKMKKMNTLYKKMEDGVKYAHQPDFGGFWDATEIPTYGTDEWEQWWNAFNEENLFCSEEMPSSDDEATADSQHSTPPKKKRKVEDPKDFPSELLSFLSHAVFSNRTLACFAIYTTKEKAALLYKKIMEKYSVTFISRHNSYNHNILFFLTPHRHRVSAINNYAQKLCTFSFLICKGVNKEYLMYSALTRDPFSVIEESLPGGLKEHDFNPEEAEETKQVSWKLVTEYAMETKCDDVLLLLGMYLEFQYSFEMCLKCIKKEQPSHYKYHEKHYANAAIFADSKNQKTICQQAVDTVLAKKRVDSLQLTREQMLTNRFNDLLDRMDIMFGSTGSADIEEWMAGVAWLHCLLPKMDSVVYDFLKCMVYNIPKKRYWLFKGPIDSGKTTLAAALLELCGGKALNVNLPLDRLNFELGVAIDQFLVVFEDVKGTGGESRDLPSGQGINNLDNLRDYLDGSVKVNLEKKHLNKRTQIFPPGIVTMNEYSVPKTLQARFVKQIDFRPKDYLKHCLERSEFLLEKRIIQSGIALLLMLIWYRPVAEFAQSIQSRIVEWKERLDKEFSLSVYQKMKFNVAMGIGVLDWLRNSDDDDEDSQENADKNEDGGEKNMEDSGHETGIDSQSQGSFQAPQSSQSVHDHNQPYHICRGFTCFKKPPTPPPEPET
Chain of Insulin-degrading enzyme (P14735 whole entry): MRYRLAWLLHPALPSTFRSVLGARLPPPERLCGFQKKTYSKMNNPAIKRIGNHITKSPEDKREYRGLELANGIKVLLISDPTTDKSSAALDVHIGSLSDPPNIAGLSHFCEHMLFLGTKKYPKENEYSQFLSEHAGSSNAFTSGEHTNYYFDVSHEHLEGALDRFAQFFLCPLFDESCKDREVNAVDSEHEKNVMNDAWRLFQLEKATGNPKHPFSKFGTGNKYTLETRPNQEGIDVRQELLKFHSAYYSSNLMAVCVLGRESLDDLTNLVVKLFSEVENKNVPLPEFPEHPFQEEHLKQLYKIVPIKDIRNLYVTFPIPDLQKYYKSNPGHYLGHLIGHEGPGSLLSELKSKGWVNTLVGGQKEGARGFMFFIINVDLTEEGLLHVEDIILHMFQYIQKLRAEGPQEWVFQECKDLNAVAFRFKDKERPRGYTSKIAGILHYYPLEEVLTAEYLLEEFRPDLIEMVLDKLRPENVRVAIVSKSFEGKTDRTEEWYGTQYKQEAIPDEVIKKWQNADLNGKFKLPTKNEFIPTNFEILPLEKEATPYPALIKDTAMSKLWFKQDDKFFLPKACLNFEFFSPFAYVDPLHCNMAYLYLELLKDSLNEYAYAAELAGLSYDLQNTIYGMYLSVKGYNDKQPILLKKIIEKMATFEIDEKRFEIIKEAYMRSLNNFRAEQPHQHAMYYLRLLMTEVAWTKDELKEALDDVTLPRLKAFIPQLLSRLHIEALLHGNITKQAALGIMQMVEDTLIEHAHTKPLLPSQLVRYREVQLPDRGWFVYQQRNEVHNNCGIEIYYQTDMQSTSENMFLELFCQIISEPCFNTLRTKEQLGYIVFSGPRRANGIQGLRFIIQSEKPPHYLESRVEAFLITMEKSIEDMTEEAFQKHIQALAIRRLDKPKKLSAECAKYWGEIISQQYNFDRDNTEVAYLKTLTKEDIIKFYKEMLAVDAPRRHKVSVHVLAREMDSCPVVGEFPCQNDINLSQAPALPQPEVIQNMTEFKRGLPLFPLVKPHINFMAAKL
Chain of Trypsin (P00761 whole entry): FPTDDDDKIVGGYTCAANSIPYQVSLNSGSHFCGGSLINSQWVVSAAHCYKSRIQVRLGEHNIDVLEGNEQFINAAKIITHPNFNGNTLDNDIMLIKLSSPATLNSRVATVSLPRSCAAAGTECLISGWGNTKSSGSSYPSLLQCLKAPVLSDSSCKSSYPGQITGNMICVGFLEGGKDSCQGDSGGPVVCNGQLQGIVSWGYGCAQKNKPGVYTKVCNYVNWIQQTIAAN

O=c1c2ccccc2sn1-c1cc(S(=O)(=O)N2CCOCC2)ccc1N1CCOCC1
IC50 [1]: > 100 µM (inactive)
IC50 [2]: 13.2 µM (active)
EC50 [3]: > 150 µM (not active)
IC50 [4]: 2.6 µM (active)
EC50 [5]: 10.2 µM (active)
IC50 [6]: 1.44 µM (active)
IC50 [7]: 14 µM (active)
IC50 [8]: 5.36 µM (active)
EC50 [9]: > 150 µM (not active)
IC50 [10]: 9.87 µM (active)
IC50 [11]: 11 µM (not active)
IC50 [12]: 1.27 µM (inactive)

COc1ccc(N(CC(=O)Nc2nc3ccc(C)cc3s2)S(=O)(=O)c2c(C)nn(C)c2C)cc1
IC50 [13]: 2.04 µM (active)

NC(=O)CC(NC(=O)Cc1cccc2ccccc12)c1ccc(NCc2cc(F)ccc2F)c([N+](=O)[O-])c1 (stereo not drawn)
Absolute IC50 (CHOP) [14]: 10 µM

COc1ccc(C(=O)NC(C)c2nnc(SCc3ccc(Cl)c(Cl)c3)n2C)cc1 (stereo not drawn)
IC50 [15]: 3.87 µM (active)
IC50 [16]: 5.45 µM (active)

COc1cccc(/C=N/n2c(S)nnc2-c2cc(C)[nH]n2)c1
IC50 [1]: > 100 µM (inactive)
IC50 [7]: 5.19 µM (active)

COc1ccc(NS(=O)(=O)c2ccc3oc(=O)c4[nH]c(=O)c(=O)n(C)c4c3c2)cc1
AC50 [17]: 22.7 µM (active)

O=C(COC(=O)C1CCN(S(=O)(=O)c2cc([N+](=O)[O-])ccc2Cl)CC1)Nc1ncc(Cl)cc1Cl
IC50 [18]: 3.81 µM (active)
IC50 [19]: 4.29 µM (active)
IC50 [15]: 17.9 µM (active)
IC50 [16]: 36.3 µM (active)

Cc1cccc(Nc2ccccc2C(=O)OCC(=O)N(C)C2CCS(=O)(=O)C2)c1C (stereo not drawn)
AC50 [20]: 28.2 µM (inconclusive)
AC50 [21]: 0.914 µM (active)
AC50 [22]: 39.8 µM (inconclusive)
AC50 [23]: 15.5 µM (active)
AC50 [24]: 28.2 µM (inconclusive)
AC50 [17]: 3.45 µM (active)

NC(=S)N/N=C/c1c[nH]nc1-c1ccccc1
IC50 [25]: > 32 µM (inactive)
IC50 [26]: > 32 µM (inactive)

c1ccc(-c2nc(-c3nccc4ccccc34)oc2-c2ccccc2)cc1
IC50 [13]: 3.48 µM (active)
EC50 [3]: 5.23 µM (active)
EC50 [5]: > 150 µM (not active)
IC50 [27]: > 67.5 µM (inactive)
AC50 [28]: 132 µM (active)
EC50 [9]: > 150 µM (not active)
IC50 [29]: > 67.5 µM (inactive)
